SMILES strings stand for the structures.

One data set deals with T1, hMAO B (Homo sapiens, UniProt P27338).
T1 construct: purchased Sigma Aldrich
T1 sequence (P27338 1-520): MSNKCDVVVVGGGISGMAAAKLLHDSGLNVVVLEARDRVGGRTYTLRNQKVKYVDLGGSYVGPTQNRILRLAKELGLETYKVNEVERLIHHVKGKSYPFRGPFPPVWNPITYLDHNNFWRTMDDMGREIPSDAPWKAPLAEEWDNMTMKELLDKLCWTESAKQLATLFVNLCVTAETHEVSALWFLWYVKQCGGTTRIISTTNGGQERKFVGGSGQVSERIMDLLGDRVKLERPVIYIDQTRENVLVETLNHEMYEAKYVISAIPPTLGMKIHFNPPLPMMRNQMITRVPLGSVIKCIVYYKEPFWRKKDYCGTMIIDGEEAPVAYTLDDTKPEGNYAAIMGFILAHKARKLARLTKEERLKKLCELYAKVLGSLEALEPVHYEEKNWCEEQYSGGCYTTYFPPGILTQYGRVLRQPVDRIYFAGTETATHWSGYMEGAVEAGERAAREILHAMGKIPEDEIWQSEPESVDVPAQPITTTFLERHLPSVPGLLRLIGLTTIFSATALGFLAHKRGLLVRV
As to the kind of experiment: biochemical. The data set is classed as biochemical. Conditions: for inhibition at 10 µM: read-out: % inhibition at 10 μM hMAO B.

Data set [1] is described as follows: Hydrolytic stability in buffered solution (PBS pH 7.4, 37 °C). The following applies: 20 μM in 10 mM PBS pH 7.4, 37 °C, 6 h incubation. The data set is classed as physicochemical. As for the experimental part:
The hydrolytic stability of some representative imino/hydrazone/hydrazide derivatives was determined in buffered aqueous media. […]. […]. The hydrolytic degradation of 9 in its starting reagents was confirmed by the comparison of the chromatograms of 9 and 2‐chloro‐4‐hydroxyaniline, obtained in the same chromatographic conditions (Figure 6B).
Stability studies in buffered solution were performed following an already described procedure,[23] on a Phenomenex C18 column (150×4.6 mm i.d., 3 μm particle size; Phenomenex, Castel Maggiore, Italy) using a mobile phase consisting of a mixture of methanol‐water (75 : 25 v/v, with aqueous formic acid 0.1 %). The used flow rate was 0.500 mL/min while the injection volume was 20 μL. Wavelength of UV‐Vis detector was adjusted at 254 nm. The chemical stability was evaluated in a phosphate buffer solution pH 7.4 (10 mM HPO4 ^2−/H2PO4 ^−; 100 mM NaCl) at 37 °C. Five different concentrations from 0.5 μM to 20 μM were studied in a 2 h time range (data not shown). Each concentration (0.5, 1, 5, 10 and 20 μM) was tested in triplicate starting from 3 different stocks solution (1 mM) prepared separately. The time range was extended to 6 h only for the samples at 20 μM concentration (Figure 6a).

A further data set addresses T2, hMAO A (Homo sapiens, UniProt P21397).
T2 construct: purchased Sigma Aldrich
T2 sequence (P21397 1-527): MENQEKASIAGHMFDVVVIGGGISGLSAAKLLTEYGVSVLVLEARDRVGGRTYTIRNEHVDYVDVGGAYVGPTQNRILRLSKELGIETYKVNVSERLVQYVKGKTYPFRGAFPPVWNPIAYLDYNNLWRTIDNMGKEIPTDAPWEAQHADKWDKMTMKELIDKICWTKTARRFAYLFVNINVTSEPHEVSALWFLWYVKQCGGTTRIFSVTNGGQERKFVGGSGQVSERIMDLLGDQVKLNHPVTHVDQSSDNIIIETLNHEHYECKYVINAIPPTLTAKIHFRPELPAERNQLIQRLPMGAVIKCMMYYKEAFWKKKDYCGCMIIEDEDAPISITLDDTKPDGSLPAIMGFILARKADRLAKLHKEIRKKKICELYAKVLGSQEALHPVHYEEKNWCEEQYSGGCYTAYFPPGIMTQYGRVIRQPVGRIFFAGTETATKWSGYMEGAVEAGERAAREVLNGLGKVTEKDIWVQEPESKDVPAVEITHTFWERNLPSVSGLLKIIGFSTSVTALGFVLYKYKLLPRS
The experiment in a line: biochemical. The following applies: for inhibition at 10 µM: read-out: % inhibition at 10 μM hMAO A. The text has this:
(§1) Readings were made with Infinite M1000 Pro plate reader (Tecan, Cernusco s.N., Italy) and statistical regressions with Prism software (GraphPad Prism version 5.00 for Windows, GraphPad Software, San Diego, CA, USA).

The target in another data set is T3, hAChE (Homo sapiens, UniProt P22303).
T3 construct: purchased Sigma Aldrich
As to the kind of experiment: biochemical. The following applies: for inhibition at 10 µM: read-out: % inhibition at 10 μM hAChE.
From the text: as §1

The nature of data set [2]: RP-HPLC lipophilicity index log k’. Type of data set: physicochemical. The following applies: MeOH/phosphate buffer pH 7.4; methanol/PBS 60:40 v/v. The text has this: To investigate a possible correlation between MAO inhibitory potency and lipophilicity,[7] we calculated log P with three different programs (ChemDraw 15.0; ALOG PS 2.1; ChemSketch 2017, see Table S1 in Supporting Information) and compared the calculated values with experimental lipophilicity indexes as assessed by reversed‐phase (RP) HPLC in isocratic conditions for the majority of compounds. The log of capacity factors (log k’) measured by RP‐HPLC using a mixture of methanol/PBS (60 : 40, v/v) as the mobile phase are reported in Tables 1 and 2, along with Clog P values calculated with ChemDraw. These calculated lipophilicity descriptors correlated with the experimental log k’ values (n=13, r ^2=0.901) better than the other log Ps calculated by ALOG PS and ChemSketch computational tools (r ^2 equal 0.705 and 0.568, respectively). As shown by the scatter plots in Figure 4 and Figure S1 in Supporting Information, there is no evident correlation trend between MAO A/B inhibition data and lipophilicity calculated by the expert system implemented in ChemDraw for compounds achieving finite IC50 values.
Log k’ values (k’=(tr‐t0)/t0) and purity determinations were carried out using a Phenomenex Gemini C18 4.6×150 mm, with 3 μm size particles, built on a Waters double pump HPLC system in isocratic conditions. Injection volumes were 10 μL, flow rate was 0.5 mL/min, and detection was performed with UV (λ=254 and 370 nm). Samples were prepared by dissolving 0.1 mg/mL of the solute in 10 % v/v DMSO and 90 % v/v methanol. Retention times (tr) were measured at least from three separate injections, and dead time (t0) was the retention time of deuterated methanol. The mobile phase was filtered through a Supelco Nylon‐66 membrane 0.45 μm (Merck Life Science Srl, Milan, Italy) before use. For each reference compound, the average tr of three consecutive injections of 10 μL of sample was used to calculate the log k’ values. The eluent consisted of five different mixtures of methanol and PBS buffer 10 mM at pH 7.4, with methanol/buffer ratios ranging from 80 : 20 to 60 : 40 v/v.

T3 sequence (P22303 32-614): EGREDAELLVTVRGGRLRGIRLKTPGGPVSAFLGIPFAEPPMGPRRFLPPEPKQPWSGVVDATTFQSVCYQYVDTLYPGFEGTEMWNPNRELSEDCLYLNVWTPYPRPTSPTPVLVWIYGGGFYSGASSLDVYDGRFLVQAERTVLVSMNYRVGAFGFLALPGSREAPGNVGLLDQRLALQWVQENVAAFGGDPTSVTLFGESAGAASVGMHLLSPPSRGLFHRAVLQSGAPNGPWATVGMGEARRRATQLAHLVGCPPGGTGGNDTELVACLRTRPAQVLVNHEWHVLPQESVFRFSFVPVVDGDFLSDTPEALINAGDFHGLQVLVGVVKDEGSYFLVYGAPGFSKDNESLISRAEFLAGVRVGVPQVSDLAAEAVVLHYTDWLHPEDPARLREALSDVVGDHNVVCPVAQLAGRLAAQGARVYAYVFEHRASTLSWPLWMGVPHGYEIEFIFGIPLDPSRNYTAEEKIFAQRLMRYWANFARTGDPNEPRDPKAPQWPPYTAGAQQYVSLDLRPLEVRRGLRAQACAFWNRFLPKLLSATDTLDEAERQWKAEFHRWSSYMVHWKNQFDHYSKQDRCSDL

As for `N#Cc1ccc(-c2ccc(C=NNC(=O)c3cccs3)o2)cc1` [Compound 4, N ′‐((5‐(4‐cyanophenyl)furan‐2‐yl)methylene)thiophene‐2‐carbohydrazide], the IC50 came out at 2.63 ± 0.42 µM at hMAO B and 1.46 ± 0.21 µM on hMAO A. Besides, in data set [1], the “hydrolytic stability” value was “substantial stability”. Further, the inhibition at 10 µM at hAChE is 51%.

Take `CC(=O)NN=Cc1ccc(-c2ccc(C#N)cc2)o1` [Compound 6, N ′‐((5‐(4‐cyanophenyl)furan‐2‐yl)methylene)acetohydrazide]: the IC50 against hMAO B was 2.65 ± 0.11 µM; at hMAO A, 4.25 ± 0.45 µM. Besides, in data set [2], the “log k’ (logarithm of capacity factor, RP-HPLC)” value (from here on “log k’”) is listed as 0.236. The inhibition at 10 µM at hAChE was 38%.

As to `N#Cc1ccc(-c2ccc(/C=N/NC(=O)c3ccncc3)o2)cc1` [Compound 5, N ′‐((5‐(4‐cyanophenyl)furan‐yl)methylene)isonicotinohydrazide], the IC50 against hMAO B came out at 12.6 ± 0.9 µM; against hMAO A, 6.62 ± 0.71 µM. In addition, in data set [2], the “log k’” value is 0.312. Further, the inhibition at 10 µM on hAChE came to 27%.

`O=C1CN(/N=C/c2ccco2)C(=O)N1` [Compound 14]: the “% inhibition at 10 μM hMAO B” value on hMAO B (10 μM) was “no inhibition”. In data set [2], the “log k’” value was −1.018. Besides, on hMAO A, the inhibition at 10 µM came to 11%. For the same molecule, the IC50 at hAChE was determined as 9.06 ± 0.45 µM.

On to `COc1cc(C=NN2CC(=O)NC2=O)cc(OC)c1OC` [Compound 21, 1‐(((3,4,5‐trimethoxyphenyl)methylidene)amino)imidazolidine‐2,4‐dione], for which the inhibition at 10 µM on hMAO B amounted to 18%; at hMAO A, 8%; at hAChE, 28%.

In the case of `O=C(Cc1ccccc1)NN=Cc1ccco1` [Compound 17, N ′‐((furan‐2‐yl)methylidene)‐2‐phenylacetohydrazide], the inhibition at 10 µM on hMAO B worked out at 22%; on hMAO A, 22%; on hAChE, 52%.

Regarding `COc1cc(C=NNC(=O)c2cccs2)ccc1-c1ccc(C#N)cc1` [Compound 13, N ′‐[(4′‐cyano‐2‐methoxy[1,1′‐biphenyl]‐4‐yl)methylidene]thiophene‐2‐carbohydrazide], on hMAO B, the IC50 amounted to 2.32 ± 0.43 µM. The “log k’” value in data set [2] came to 0.549. Further, the inhibition at 10 µM on hMAO A is 29%; at hAChE, 35%.

As for `O=C(NN=Cc1ccc(-c2ccc([N+](=O)[O-])cc2)o1)c1cccs1` [Compound 1, N ′‐((5‐(4‐nitrophenyl)furan‐2‐yl)methylene)thiophene‐2‐carbohydrazide], the IC50 against hMAO B came out at 3.67 ± 0.92 µM. Also, in data set [2], the “log k’” value came out at 0.947. The inhibition at 10 µM came to 33% on hMAO A and 40% on hAChE.

On to `COc1cccc(/C=N/NC(=O)c2ccncc2)c1` [Compound 19], for which the IC50 came out at 12.2 ± 1.5 µM against hMAO B and 11.2 ± 1.6 µM against hAChE. Further, the “log k’” value in data set [2] is given as 0.129. The inhibition at 10 µM on hMAO A came out at 19%.

On to `COc1cccc(C=NNc2ccc(S(N)(=O)=O)cc2)c1` [Compound 20, 4‐(2‐((3‐methoxyphenyl)methylidene)hydrazinyl)benzene‐1‐sulfonamide], for which the figures for the IC50 at hMAO B and against hAChE were 0.81 ± 0.04 µM and 10.2 ± 1.6 µM, respectively. Also, the “log k’” value in data set [2] was determined as 0.307. Moreover, the inhibition at 10 µM on hMAO A was found to be 42%.

For the molecule `NS(=O)(=O)c1ccc(NN=Cc2ccco2)cc1` [Compound 18, 4‐(‐2‐((furan‐2‐yl)methylidene)hydrazinyl)benzene‐1‐sulfonamide], the inhibition at 10 µM at hMAO B came out at 21%; at hMAO A it was 25%; on hAChE, 27%.

With `CN1CCN(N=Cc2ccco2)CC1` [Compound 16, 1‐(Furan‐2‐yl)‐N‐(4‐methylpiperazin‐1‐yl)methanimine], the inhibition at 10 µM on hMAO B turned out to be 13%; at hMAO A, 18%; at hAChE, 21%.

As to `O=C(N/N=C/c1ccco1)c1cccs1` [Compound 15], the inhibition at 10 µM is 13% on hMAO B and 16% at hMAO A. For the same molecule, the “log k’” value in data set [2] is −0.010. For the same molecule, at hAChE, the IC50 came out at 7.18 ± 0.07 µM.

`COc1ccc(N/N=C/c2ccc(-c3ccc(C#N)cc3)o2)cc1` [Compound 10]: the inhibition at 10 µM was determined as 29% at hMAO B and 47% on hMAO A.

For the molecule `N#Cc1ccc(-c2ccc(/C=N/Nc3ccc(S(N)(=O)=O)cc3)o2)cc1` [Compound 12], the inhibition at 10 µM at hMAO B came to 28%. Also, in data set [2], the “log k’” value is reported as 0.466. Moreover, the IC50 against hMAO A worked out at 10 ± 1.9 µM; on hAChE, 1.67 ± 0.19 µM.

With `O=C(N/N=C/c1ccc(-c2ccc([N+](=O)[O-])cc2)o1)c1ccncc1` [Compound 2], the IC50 on hMAO B came out at 3.56 ± 0.36 µM; at hMAO A, 7.89 ± 1.1 µM. For the same molecule, the “log k’” value in data set [2] was determined as 0.522. At hAChE, the inhibition at 10 µM came out at 30%.

Regarding `N#Cc1ccc(-c2ccc(C=NNC(=O)Cc3ccccc3)o2)cc1` [Compound 8, N ′‐((5‐(4‐cyanophenyl)furan‐2‐yl)methylene)‐2‐phenyl‐acetohydrazide], the values for the IC50 on hMAO B and at hMAO A were 3.61 ± 0.04 µM and 5.51 ± 0.54 µM, respectively. The “log k’” value in data set [2] is reported as 0.803. In addition, the inhibition at 10 µM on hAChE was determined as 16%.

In the case of `CS(=O)(=O)c1ccc(NN=Cc2ccc(-c3ccc(C#N)cc3)o2)cc1` [Compound 11, 4‐(5‐((2‐(4‐(methylsulfonyl)phenyl)hydrazono)methyl)furan‐2‐yl)benzonitrile], the inhibition at 10 µM was 28% on hMAO B, 11% at hMAO A and 39% at hAChE.

For the molecule `N#Cc1ccc(-c2ccc(/C=N/N3CC(=O)NC3=O)o2)cc1` [Compound 7], the values for the inhibition at 10 µM on hMAO B, on hMAO A and at hAChE were 50%, 40% and 28%, respectively.

Values taken from PMC8518391, “Synthesis and Biological Evaluation of Dantrolene‐Like Hydrazide and Hydrazone Analogues as Multitarget Agents for Neurodegenerative Diseases” (Chemmedchem, 2021).
